The source of these data is US11993640B2, “Treating inflammatory lung disease” (United States Government as represented by the Department …, priority 2019, dated 2024).

In one assay the test system is rat pituitary cells. Put plainly: Inhibition of GHRH(1-29)NH2-stimulated GH release from rat pituitary cells (ELISA). Type of assay: cell-based. The conditions noted are these: analog 20 nM. Here is the method: In vitro assessment of the antagonistic activity of GHRH analogs. Rats were decapitated and pituitaries were collected in pre-warmed HBSS (Hanks' Balanced Salt Solution). Tissue was then cut into small pieces and digested in HBSS medium containing 3% BSA, 50 μg/ml gentamycin and 0.5% collagenase for 50 minutes at 37° C. Cells were further dispersed by pipetting and passed through a 100 μm cell strainer with the addition of DMEM containing 50 μg/ml gentamycin, 10% horse serum and 2.5% FBS (growth medium). Cells were harvested at 475×g for 2 minutes, resuspended in fresh growth medium and seeded onto poly-D-lysine-coated 24-well plates (7 pituitaries/plate). Cells were left to recover for 4 days. Growth medium was then replaced with serum-free DMEM for 4 hours and GHRH analogs (at concentration of 20 nM) were added in DMEM containing 0.1% BSA for 30 minutes. Cells were replenished with medium containing the same concentration of the analogs and 1 nM GHRH(1-29)NH2 for 30 minutes. Medium from this step was collected, centrifuged at 800 g for 3 minutes and GH concentration was determined by ELISA (ALPCO Diagnostics, Mill Valley, CA) according to the manufacturer's instruction.

For the next assay, the system named is HT-29 xenograft. Put plainly: Xenograft tumor growth in nude mice, colon cancer HT-29. The class given is in vivo. The note with it: Panel G, 6 weeks. Here is the method: (§1) The peptides' activity was compared with GHRH antagonist MIA-602. All statistical analyzses were performed from comparing GHRA antagonists to non-treated tumor (control).
(§2) Peptides and chemicals. GHRH antagonists MIA-602 and AVR-GHRH antagonists (see Table 2 above) were synthesized by solid phase methods and purified by HPLC. The peptides were dissolved in DMSO and further diluted in 10% 1, 2-propanediol. The final concentration of peptides was 50 µg/ml in 10% 1, 2-propanediol containing 0.1% of DMSO.
(§3) Cell culture. Human cancer cell lines including pancreatic (PANC-1 and CFPAC-1), lung (HCC827 and H460), stomach (NCI-N87), prostate (PC3), brest (MX-1 and HCC-1806), colorectal (HT-29), and ovarian (SK-OV-3 and OVCAR-3) were obtained from the American Type Culture Collection (ATCC) and cultured at 37° C. in a humidified 95% air/5% CO2 atmosphere in the medium recommended by ATCC.
(§4) Xenograft models of human cancers in nude mice. Female athymic (NCr nu/nu) nude mice, 5-to 6-weeks-old, obtained from the Envigo labs (Tampa, FL), were housed in laminar airflow cabinets under pathogen-free conditions with a 12-h light/12-h dark schedule, and were fed autoclaved standard chow and water. To generate mice with xenografted tumors, tumor xenografts were initiated by subcutaneous (s.c.) injection of […] human cancer cells into female nude mice. After about 4 weeks the resulting tumors were dissected and collected after removing necrosis tissues. The tumors were then cut into particles with size of ˜3 mm3 and transplanted s.c. by trocar needle into experimental animals. When tumors grew to the size of 50-60 mm3 (by volume), mice were randomized into groups and treated daily for 4-8 weeks by subcutaneous administration of 5 μg of GHRH antagonists MIA-602 or AVR-compounds (2-10 μg as indicated), or vehicle solutions (0.1% DMSO in 10% 1, 2-propanediol) respectively. Tumor sizes were measured weekly.
(§5) Statistical analysis. One-way ANOVA followed by Bonferroni comparison were performed. Data are expressed as Mean±SEM. To determine statistical significance between animal groups, two-tailed Student's t-test was conducted. Differences were considered significant when p<0.05.
(§6) Results. […] FIG. 1A-N represents in vivo inhibition of tumor growth during the treatment with GHRH antagonist MIA-602 and selected AVR antagonists in nude mice xenografted with various human tumors including pancreatic cancer PANC-1 (FIG. 1A) and CFPAC-1 (FIG. 1I); lung cancer HCC827 (FIGS. 1B, C) and H460 (FIG. 1H); stomach cancer N87 (FIGS. 1D-F); colon cancer HT-29 (FIG. 1G); breast cancer MX-1 and HCC-1806 (FIGS. 1J, K); ovarian cancer SK-OV-3 and OVACAR-3 (FIGS. 1L, M) and prostate cancer PC3 (FIG. 1N). See also Table 5.

A further assay has as its system PC3 xenograft. Put plainly: Xenograft tumor growth in nude mice, prostate cancer PC3. Type of assay: in vivo. The conditions noted are these: Panel N, 8 weeks, 5 μg/day s.c. The method, then:
as §1, §2, §3, §4
(§7) Statistical analysis. One-way ANOVA followed by Bonferroni comparison were performed. Data are expressed as Mean±SEM. […]

For assay [1], the target named is T1, membrane GHRH-receptors on human anterior pituitary cells (Homo sapiens, UniProt Q02643).
T1 construct: Human pituitary was purchased from the National Hormone and Peptide Program; tissue National Hormone and Peptide Program; host or cells: human pituitary membrane fractions
T1 sequence (Q02643 23-423): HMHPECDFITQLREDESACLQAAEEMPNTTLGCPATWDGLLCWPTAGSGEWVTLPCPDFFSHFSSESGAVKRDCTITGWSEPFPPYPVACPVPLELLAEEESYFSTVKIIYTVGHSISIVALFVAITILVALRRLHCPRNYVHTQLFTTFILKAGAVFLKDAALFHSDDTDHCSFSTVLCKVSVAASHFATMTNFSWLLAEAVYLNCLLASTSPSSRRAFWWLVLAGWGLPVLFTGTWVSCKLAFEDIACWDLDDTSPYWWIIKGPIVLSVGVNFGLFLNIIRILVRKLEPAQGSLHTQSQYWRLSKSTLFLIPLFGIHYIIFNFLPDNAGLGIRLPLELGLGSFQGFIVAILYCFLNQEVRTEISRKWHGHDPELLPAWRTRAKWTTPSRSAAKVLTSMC
The assay can be described thus: Competitive receptor binding, displacement of 125I-[His1,Nle27]-hGH-RH(1-32)NH2 from human pituitary membranes. The method, then: Receptor binding affinities in vitro. Preparation of human pituitary membrane fractions and receptor binding of analogs of GH-RH were performed (Halmos G, Rekasi Z, Szoke B, Schally A V. (1993) Receptor 3:87-97). Human pituitary was purchased from the National Hormone and Peptide Program. […] Relative affinities compared to hGH-RH(1-29)NH2 were calculated as the ratio of IC50 (dose causing 50% inhibition of specific binding to receptors) of the tested peptides to the IC50 of hGH-RH(1-29)NH2. The values were calculated from technical duplicate tubes.
Nineteen new AVR analogs of GHRH were tested in the receptor binding assay. Table 6 presents the IC50 values of GHRH antagonists to membrane GHRH-receptors binding on human anterior pituitary cells.

Another assay has as its system OVCAR-3 xenograft. The assay can be described thus: Xenograft tumor growth in nude mice, ovarian cancer OVCAR-3. The note with it: Panel M, 9 weeks. Type of assay: in vivo. The method, then:
as §1, §2, §3, §4, §7

A further assay deals with HCC827 xenograft. Put plainly: Xenograft tumor growth in nude mice, lung cancer HCC827. The class given is in vivo. The note with it: 5 μg/day s.c., vs control. Here is the method: as §1, §2, §3, §4, §5, §6
The subject of a further assay is SK-OV-3 xenograft. Put plainly: Xenograft tumor growth in nude mice, ovarian cancer SK-OV-3. Type of assay: in vivo. The note with it: Panel L, 7 weeks. The method, then: as §1, §2, §3, §4, §5, §6
The test system of a further assay is NCI-N87 xenograft. The assay can be described thus: Xenograft tumor growth in nude mice, stomach cancer N87. The class given is in vivo. The note with it: Panel F, 4 weeks, 5 μg/day s.c., vs control. The method, then: as §1, §2, §3
as §4, with “mice were randomized into groups and treated daily for 4-8 weeks by subcutaneous administration” left out
as §5, §6

“Also recorded” adds a separate entry of the source. Non-standard residues stand in square brackets, D forms with d. Residues, ends and D or L forms follow the SMILES beside them. *: point of attachment. Phenylacetyl(2,3,4,5,6-F5) = O=C(Cc1c(F)c(F)c(F)c(F)c1F)*; Phe(F5) = N[C@@H](Cc1c(F)c(F)c(F)c(F)c1F)C(=O)O; Phe(4-Cl) = N[C@@H](Cc1ccc(Cl)cc1)C(=O)O; hArg = N=C(N)NCCCC[C@H](N)C(=O)O; 12Ado = NCCCCCCCCCCCC(=O)O; Nle = CCCC[C@H](N)C(=O)O; Abu = CC[C@H](N)C(=O)O

Turning to `CCCC[C@H](NC(=O)[C@@H](NC(=O)[C@H](CC(=O)O)NC(=O)[C@H](CCC(N)=O)NC(=O)[C@H](CC(C)C)NC(=O)[C@H](CC(C)C)NC(=O)[C@H](CCCCN)NC(=O)[C@H](CCCNC(=N)N)NC(=O)[C@H](C)NC(=O)[C@H](CO)NC(=O)[C@H](CC(C)C)NC(=O)[C@H](CCC(N)=O)NC(=O)[C@H](CC)NC(=O)[C@H](CC(C)C)NC(=O)[C@@H](NC(=O)[C@H](CCCCN)NC(=O)[C@H](CCCNC(=N)N)NC(=O)[C@H](Cc1c(F)c(F)c(F)c(F)c1F)NC(=O)[C@H](CCCCNC(=N)N)NC(=O)[C@H](C)NC(=O)[C@@H](NC(=O)[C@H](Cc1ccc(Cl)cc1)NC(=O)[C@@H](NC(=O)[C@H](C)NC(=O)[C@H](CC(=O)O)NC(=O)[C@@H](CCCNC(=N)N)NC(=O)[C@H](Cc1ccc(O)cc1)NC(=O)CCCCCCCCCCCNC(=O)Cc1c(F)c(F)c(F)c(F)c1F)[C@@H](C)CC)[C@@H](C)O)C(C)C)[C@@H](C)CC)C(=O)N[C@H](CCCNC(=N)N)C(=O)N[C@@H](CCCCNC(=N)N)C(=O)NCCCCCCCCCCCC(N)=O` [AVR-353, 5FPhAC-Ada-Tyr-DArg-Asp-Ala-Ile-Cpa-Thr-Ala-Har-5FPhe-Arg-Lys-Val-Leu-Abu-Gln-Leu-Ser-Ala-Arg-Lys-Leu-Leu-Gln-Asp-Ile-Nle-DArg-Har-Ada-NH2] ({Phenylacetyl(2,3,4,5,6-F5)-12Ado}-Y[dR]DAI[Phe(4-Cl)]TA[hArg][Phe(F5)]RKVL[Abu]QLSARKLLQDI[Nle][dR][hArg][12Ado]-NH2), the “Inhibitory effect on the release of GH compared with MIA-602” value in the assay with rat pituitary cells was “higher inhibitory effects than MIA-602”. Besides, the “Tumor Growth %” value in the assay on HT-29 xenograft (2 μg/day s.c.) worked out at 549.30%; in the assay on HT-29 xenograft (5 μg/day s.c.), 494.70%; in the assay with PC3 xenograft, 496.7%; with OVCAR-3 xenograft (2.5 μg/day s.c.), 357.0%; in the assay on OVCAR-3 xenograft (5 μg/day s.c.) it was 255.2%; in the assay on SK-OV-3 xenograft (2.5 μg/day s.c.), 1056.0%. Besides, the “Tumor Growth %” value in the assay on SK-OV-3 xenograft (5 μg/day s.c.) is on record as 910.7%. Also, the “Binding affinity to membrane receptors of human pituitary cells” value in assay [1] is “higher binding affinity in comparison to MIA-602; also recorded: highest binding affinities”. In addition, the “% Inhibition” value in the assay with HCC827 xenograft (Panel B, 7 weeks) was found to be 71.0%; with HCC827 xenograft (Panel C, 8 weeks), 50.0%; in the assay on NCI-N87 xenograft it was 65.0%.

With `CCCC[C@H](NC(=O)[C@@H](NC(=O)[C@H](CC(=O)O)NC(=O)[C@H](CCC(N)=O)NC(=O)[C@H](CC(C)C)NC(=O)[C@H](CC(C)C)NC(=O)[C@H](CCCCN)NC(=O)[C@H](CCCNC(=N)N)NC(=O)[C@H](C)NC(=O)[C@H](CO)NC(=O)[C@H](CC(C)C)NC(=O)[C@H](CCC(N)=O)NC(=O)[C@H](CC)NC(=O)[C@H](CC(C)C)NC(=O)[C@@H](NC(=O)[C@H](CCCCN)NC(=O)[C@H](CCCNC(=N)N)NC(=O)[C@H](Cc1c(F)c(F)c(F)c(F)c1F)NC(=O)[C@H](CCCCNC(=N)N)NC(=O)[C@H](C)NC(=O)[C@@H](NC(=O)[C@H](Cc1ccc(Cl)cc1)NC(=O)[C@@H](NC(=O)[C@H](C)NC(=O)[C@H](CC(=O)O)NC(=O)[C@@H](CCCNC(=N)N)NC(=O)[C@H](Cc1ccc(O)cc1)NC(=O)CCCCCCCCCCCNC(=O)Cc1c(F)c(F)c(F)c(F)c1F)[C@@H](C)CC)[C@@H](C)O)C(C)C)[C@@H](C)CC)C(=O)N[C@H](CCCNC(=N)N)C(=O)N[C@@H](CCCCNC(=N)N)C(=O)NCCCCCCCCCCCC(=O)NC` [AVR-354] ({Phenylacetyl(2,3,4,5,6-F5)-12Ado}-Y[dR]DAI[Phe(4-Cl)]TA[hArg][Phe(F5)]RKVL[Abu]QLSARKLLQDI[Nle][dR][hArg][12Ado]-NHMe), the figures for the “Tumor Growth %” value in the assay with HT-29 xenograft (5 μg/day s.c.) and in the assay on PC3 xenograft were 417.90% and 343.6%, respectively. In addition, the “Binding affinity to membrane receptors of human pituitary cells” value in assay [1] was “higher binding affinity in comparison to MIA-602; also recorded: highest binding affinities”. Besides, in assay [1] (human anterior pituitary membranes, mean of two to three determinations, read-out: IC50), the IC50 turned out to be 0.14 nM.
